Laboratory results: patent US12655116B2, “Substituted isophthalic acid diamides” (Bayer Aktiengesellschaft, priority 2020, dated 2026)

What was measured:
ABUTH [1] = test: Pre-emergence herbicidal action against ABUTH; format: in vivo, Abutilon theophrasti
In short: (§1)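 Greenhouse pots of sandy loam held seeds covered with soil, onto which the compound was applied before emergence. An aqueous suspension or emulsion of WP or EC was used at 600 to 800 l/ha with 0.2% wetting agent. Percent damage was judged visually at 3 weeks.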

ALOMY [2] = test: Pre-emergence herbicidal action against ALOMY; format: in vivo, Alopecurus myosuroides; conditions: pre-emergence
In short: as §1

AMARE [3] = test: Pre-emergence herbicidal action against AMARE; format: in vivo, Amaranthus retroflexus
In short: as §1

ECHCG [4] = test: Pre-emergence herbicidal action against ECHCG; format: in vivo, Echinochloa crus-galli
In short: as §1

LOLRI = test: Pre-emergence herbicidal action against LOLRI; format: in vivo, Lolium rigidum; conditions: 80 g/ha
In short: as §1

MATIN [5] = test: Pre-emergence herbicidal action against MATIN; format: in vivo, Matricaria inodora
In short: as §1

POLCO = test: Pre-emergence herbicidal action against POLCO; format: in vivo, Polygonum convolvulus; conditions: dosage 80 g/ha
In short: as §1

SETVI [6] = test: Pre-emergence herbicidal action against SETVI; format: in vivo, Setaria viridis; conditions: dosage 80 g/ha
In short: as §1

VERPE [7] = test: Pre-emergence herbicidal action against VERPE; format: in vivo, Veronica persica; conditions: dosage 80 g/ha
In short: as §1

VIOTR [8] = test: Pre-emergence herbicidal action against VIOTR; format: in vivo, Viola tricolor; conditions: dosage 80 g/ha
In short: as §1

DIGSA [9] = test: Pre-emergence herbicidal action against DIGSA; format: in vivo, Digitaria sanguinalis
In short: as §1

ABUTH [10] = test: Post-emergence herbicidal action against ABUTH; format: in vivo, Abutilon theophrasti; conditions: visual assessment about 3 weeks after treatment vs untreated controls
In short: (§2)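 A WP or EC formulation diluted in water with 0.2% wetting agent was sprayed at 600 to 800 l/ha onto one-leaf-stage plants grown in sandy loam. About 3 weeks later, action was rated visually in percent, 100% being dead plants.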

ALOMY [11] = test: Post-emergence herbicidal action against ALOMY; format: in vivo, Alopecurus myosuroides; conditions: visual assessment about 3 weeks after treatment vs untreated controls
In short: as §2

AMARE [12] = test: Post-emergence herbicidal action against AMARE; format: in vivo, Amaranthus retroflexus; conditions: 20 g/ha, visual assessment about 3 weeks after treatment, 100% = plants have died, 0% = like control plants
In short: as §2

ECHCG [13] = test: Post-emergence herbicidal action against ECHCG; format: in vivo, Echinochloa crus-galli
In short: as §2

PHBPU [14] = test: Post-emergence herbicidal action against PHBPU; format: in vivo, Pharbitis purpurea
In short: as §2

SETVI [15] = test: Post-emergence herbicidal action against SETVI; format: in vivo, Setaria viridis
In short: as §2

VERPE [16] = test: Post-emergence herbicidal action against VERPE; format: in vivo, Veronica persica; conditions: 20 g/ha
In short: as §2

VIOTR [17] = test: Post-emergence herbicidal action against VIOTR; format: in vivo, Viola tricolor
In short: as §2

DIGSA [18] = test: Post-emergence herbicidal action against DIGSA; format: in vivo, Digitaria sanguinalis
In short: as §2

AVEFA = test: Pre-emergence herbicidal action against AVEFA; format: in vivo, Avena fatua; conditions: Avena fatua, 504 h, pre-emergence
In short: as §1

PHBPU [19] = test: Pre-emergence herbicidal action against PHBPU; format: in vivo, Pharbitis purpurea; conditions: Ipomoea purpurea, 504 h, dosage 80 g/ha
In short: as §1

MATIN [20] = test: Post-emergence herbicidal action against MATIN; format: in vivo, Matricaria inodora; conditions: Tripleurospermum inodorum, 504 h, dosage 20 g/ha
In short: as §2

[21] = 80 g/ha, scored visually after 3 weeks vs untreated controls (100% = plants have died, 0% = like control plants)

Cc1c(C(=O)Nc2nnnn2C)ccc(C(F)F)c1C(=O)NCC1CC1 [Example 1-47]
Pre-emergence action against ABUTH (herbicidal activity) (ABUTH [1]; [21]): 100% | Pre-emergence action against ABUTH (herbicidal activity in percent) (ABUTH [1]; dosage 20 g/ha, scored visually after 3 weeks vs untreated controls, 100% = plants have died, 0% = like control plants): 100% | Pre-emergence action against ALOMY (herbicidal activity) (ALOMY [2]; [21]): 90% | Pre-emergence action against AMARE in % (AMARE [3]; 20 g/ha, scored visually after 3 weeks vs untreated controls, 100% = plants have died, 0% = like control plants): 100% | Pre-emergence action against AMARE in % (AMARE [3]; [21]): 100% | Pre-emergence action against ECHCG in % (ECHCG [4]; 80 g/ha): 100% | Pre-emergence action against LOLRI in % (LOLRI): 80% | Pre-emergence action against MATIN in % (MATIN [5]; dosage 20 g/ha): 80% | Pre-emergence action against MATIN in % (MATIN [5]; dosage 80 g/ha): 100% | Pre-emergence action against POLCO in % (POLCO): 100% | Pre-emergence action against SETVI in % (SETVI [6]): 100% | Pre-emergence action against VERPE in % (VERPE [7]): 100% | Pre-emergence action against VIOTR in % (VIOTR [8]): 100% | Pre-emergence action against DIGSA in % (DIGSA [9]; dosage 20 g/ha): 100% | Pre-emergence action against DIGSA in % (DIGSA [9]; dosage 80 g/ha): 100% | Post-emergence action against ABUTH in % (ABUTH [10]; dosage 20 g/ha): 80% | Post-emergence action against ALOMY in % (ALOMY [11]; dosage 5 g/ha): 80% | Post-emergence action against ALOMY in % (ALOMY [11]; dosage 20 g/ha): 90% | Post-emergence action at 20 g/ha against AMARE in % (AMARE [12]): 90% | Post-emergence action against ECHCG in % (ECHCG [13]; dosage 5 g/ha): 90% | Post-emergence action against ECHCG in % (ECHCG [13]; dosage 20 g/ha): 90% | Post-emergence action against PHBPU in % (PHBPU [14]; dosage 5 g/ha): 80% | Post-emergence action against PHBPU in % (PHBPU [14]; dosage 20 g/ha): 90% | Post-emergence action against SETVI in % (SETVI [15]; dosage 20 g/ha): 80% | Post-emergence action against VERPE in % (VERPE [16]): 80% | Post-emergence action against VIOTR in % (VIOTR [17]; 20 g/ha): 80% | Post-emergence action against DIGSA (DIGSA [18]; 20 g/ha): 90%

CNC(=O)c1c(Br)ccc(C(=O)Nc2nnnn2C)c1Cl [Example 1-177]
pest or weed control at 80 g/ha (ABUTH [1]; Abutilon theophrasti, 504 h, 80 g/ha, scored visually after 3 weeks vs untreated controls (100% = plants have died, 0% = like control plants)): 100% | pest or weed control at 80 g/ha (ALOMY [2]; Alopecurus myosuroides, 504 h, 80 g/ha, scored visually after 3 weeks vs untreated controls (100% = plants have died, 0% = like control plants)): 100% | pest or weed control at 20 g/ha (ALOMY [2]; Alopecurus myosuroides, 504 h, 20 g/ha, scored visually after 3 weeks, 100% = plants have died, 0% = like control plants): 80% | pest or weed control at 20 g/ha (AMARE [3]; Amaranthus retroflexus, 504 h, 20 g/ha, scored visually after 3 weeks vs untreated controls, 100% = plants have died, 0% = like control plants): 100% | pest or weed control at 80 g/ha (AMARE [3]; Amaranthus retroflexus, 504 h, 80 g/ha, scored visually after 3 weeks vs untreated controls, 100% = plants have died, 0% = like control plants): 100% | pest or weed control at 80 g/ha (AVEFA; 80 g/ha): 100% | pest or weed control at 20 g/ha (AVEFA; 20 g/ha, scored visually after 3 weeks, 100% = plants have died, 0% = like control plants): 80% | pest or weed control at 20 g/ha (ECHCG [4]; Echinochloa crus-galli, 504 h, 20 g/ha): 80% | pest or weed control at 80 g/ha (ECHCG [4]; Echinochloa crus-galli, 504 h, 80 g/ha): 100% | pest or weed control at 80 g/ha (LOLRI; Lolium rigidum, 504 h): 90% | pest or weed control at 20 g/ha (MATIN [5]; Tripleurospermum inodorum, 504 h, dosage 20 g/ha): 90% | pest or weed control at 80 g/ha (MATIN [5]; Tripleurospermum inodorum, 504 h, dosage 80 g/ha): 100% | pest or weed control at 80 g/ha (PHBPU [19]): 80% | pest or weed control at 80 g/ha (SETVI [6]; Setaria viridis, 504 h): 100% | pest or weed control at 80 g/ha (VERPE [7]; Veronica persica, 504 h): 100% | pest or weed control at 80 g/ha (VIOTR [8]; Viola tricolor, 504 h): 100% | pest or weed control at 20 g/ha (DIGSA [9]; Digitaria sanguinalis, 504 h, dosage 20 g/ha): 100% | pest or weed control at 80 g/ha (DIGSA [9]; Digitaria sanguinalis, 504 h, dosage 80 g/ha): 100% | pest or weed control at 5 g/ha (ABUTH [10]; Abutilon theophrasti, 504 h, dosage 5 g/ha): 90% | pest or weed control at 20 g/ha (ABUTH [10]; Abutilon theophrasti, 504 h, dosage 20 g/ha): 90% | pest or weed control at 20 g/ha (ALOMY [11]; Alopecurus myosuroides, 504 h, dosage 20 g/ha): 90% | pest or weed control at 20 g/ha (AMARE [12]; Amaranthus retroflexus, 504 h): 100% | pest or weed control at 20 g/ha (ECHCG [13]; Echinochloa crus-galli, 504 h, dosage 20 g/ha): 90% | pest or weed control at 20 g/ha (MATIN [20]): 90% | pest or weed control at 20 g/ha (PHBPU [14]; Ipomoea purpurea, 504 h, dosage 20 g/ha): 80% | pest or weed control at 5 g/ha (SETVI [15]; Setaria viridis, 504 h, dosage 5 g/ha): 90% | pest or weed control at 20 g/ha (SETVI [15]; Setaria viridis, 504 h, dosage 20 g/ha): 90% | pest or weed control at 20 g/ha (VERPE [16]; Veronica persica, 504 h): 80% | pest or weed control at 5 g/ha (VIOTR [17]; Viola tricolor, 504 h, 5 g/ha): 90% | pest or weed control at 20 g/ha (VIOTR [17]; Viola tricolor, 504 h, 20 g/ha): 90% | pest or weed control at 5 g/ha (DIGSA [18]; Digitaria sanguinalis, 504 h, 5 g/ha): 90% | pest or weed control at 20 g/ha (DIGSA [18]; Digitaria sanguinalis, 504 h, 20 g/ha): 90%
